For test [1] the following is noted: glucocorticoid administration; route (IV or PO); cited from earlier work.
Test [2] relates to parental MH194+PSC4 syngeneic tumors. As to the kind of experiment: Tumor growth in parental MH194+PSC4 syngeneic tumor mouse model (tumor volume, TGI). It counts as in vivo, C57BL/6 mice. The conditions noted are these: for Tumor volume, Day 0: Day 0 (baseline); for Tumor volume, Day 0 / Tumor volume, Day 3 / Tumor volume, Day 7 / Tumor volume, Day 10 / Tumor volume, Day 14 / Tumor volume, Day 17 / Tumor volume, Day 21: mean ± SEM; for TGI (tumor growth inhibition): last day vs vehicle. How it is done:
MH194 mouse pancreatic carcinoma cells (derived from the KrasLSL.G12D/+p53R172H/+PdxCretg/+ genetically engineered mouse model) were engineered to constitutively express human hyaluronan synthase 3 (HAS3) as in Example 1A. Stably transduced cells, designated MH194/HAS3 cells, were selected by hygromycin treatment. MH194/HAS3 and parental MH194 cells were maintained in tissue culture as an adherent monolayer in DMEM medium supplemented with 2 mM L-glutamine and 10% fetal bovine serum at 37° C. and 5% CO2.
Pancreas from C57BL/6 mice were minced with razor blades and placed in 2 mL of a digestion buffer containing 0.05% collagenase P, 0.1% DNAse, and 0.02% Pronase in Gey's balanced salt solution (GBSS). Following two […] digestion incubations at 37° C. with thorough mixing after each incubation, the resulting cell suspension was filtered through a 100 μm nylon mesh, washed twice in GBSS with 0.3% bovine serum albumin (BSA), and resuspended in 10 mL GBSS/BSA. Eight mL of Histodenz (Sigma, Cat. No. D2158) was added to the cell suspension, and the entire volume was pipetted under 6 mL GBSS/BSA in order to generate a discontinuous density gradient. Following centrifugation for 20 min at 1,400 g with the brake set at zero, the desired cells were harvested from the interface between the two density volumes and washed once with PBS and once with DMEM medium supplemented with 2 mM L-glutamine, 10% fetal bovine serum, and 1% amphotericin-B (complete DMEM). Cells were immortalized using Lenti-SV40 (Capital Biosciences, Cat. No. CIP-0011) using manufacturer's protocol. The resulting cell line, designated PSC4, were maintained in tissue culture as an adherent monolayer in complete DMEM at 37° C. and 5% CO2.
MH194/HAS3 cells as described in part A above were trypsin-harvested at 80-90% confluency, washed twice with sterile Hanks Balanced Salt Solution (HBSS), and diluted with HBSS to a concentration of 4×10^6 cells/mL. Male C57BL/6 mice were obtained at 4-6 weeks from Taconic Farms and housed 4/cage. For tumor inoculations, mice were injected with 50 μL of cell suspension containing 2×10^5 MH194/HAS3 cells or parental MH194 cells along with 5×10^5 PSC4 (7×10^5 cells total) intramuscularly, adjacent to the right tibial periosteum.
Tumor volumes were measured by ultrasound as in Example 1A2. Approximately 15-30 frames out of 150-200 frames were analyzed and a tumor volume calculated and expressed in mm^3. When using the HA quantitation procedure described in Example 1A3, tumors grown from parental MH194+PSC4 cells contained 263±16 ng HA/mg tissue, whereas tumors grown from MH194/HAS3+PSC4 cells contained 1783±99 ng HA/mg tissue.
Mice containing parental MH194+PSC4 syngeneic tumors generated as described in Example 1C, with a mean tumor volume of 131±26 mm^3, were randomized into treatment groups, each containing 6 mice, such that the mean tumor volume of each group were substantially the same. Dexamethasone or saline (0.9% sodium chloride for injection) were administered intraperitoneally (IP) on days 0, 3, 7, 10, 14, and 17, and anti-PD-1 (BioXCell Inc, clone RMP1-14, Cat. No. BE0146) or saline were administered intraperitoneally (IP) on days 1, 4, 8, 11, 15, and 18, all at the dose levels indicated in Table 27. Tumor volumes were measured on days 0, 3, 7, 10, 14, 17, and 21. The middle dexamethasone dose level (3 mg/kg) was selected to approximate the human dose equivalent for clinical trials in which PEGPH20 is administered with dexamethasone to alleviate musculoskeletal discomfort.

Setting [3] is: Dex 1 mg/kg IP 24 h prior to saline or α-PD-1 4 mg/kg IP.
[4] abbreviates: Dex 3 mg/kg IP 24 h prior to saline or α-PD-1 4 mg/kg IP.
Setting [5] is: Dex 5 mg/kg IP 24 h prior to saline or α-PD-1 4 mg/kg IP.

Consider four molecules from patent US11414489B2, “Combination therapy with a hyaluronan-degrading enzyme and an immune checkpoint inhibitor” (HALOZYME, INC., priority 2014, dated 2022).

For the molecule `C[C@H]1C[C@@H]2[C@H]([C@@H](O)C[C@@]3(C)[C@H]2CC[C@]3(O)C(=O)COC(=O)CCC(=O)O)[C@@]2(C)C=CC(=O)C=C12` [Methylprednisolone sodium succinate], the “Equivalent Potency” value in test [1] is listed as 4 mg.
`C[C@@H]1C[C@H]2[C@@H]3CCC4=CC(=O)C=C[C@]4(C)[C@@]3(F)[C@@H](O)C[C@]2(C)[C@@]1(O)C(=O)CO` [Dex]: in test [2] (setting [3]), the “Tumor volume, Day 0” value amounted to 133 ± 8 mm^3; the “Tumor volume, Day 3” value is 240 ± 19 mm^3; the “Tumor volume, Day 7” value is 374 ± 39 mm^3; the “Tumor volume, Day 10” value worked out at 581 ± 50 mm^3. For the same molecule, in test [2] (setting [3]), the “Tumor volume, Day 14” value turned out to be 904 ± 81 mm^3; the “Tumor volume, Day 17” value was 1354 ± 147 mm^3; the “Tumor volume, Day 21” value came to 1899 ± 155 mm^3; the “TGI (tumor growth inhibition)” value stood at 19%. Also, in test [2] (setting [4]), the “Tumor volume, Day 0” value was 133 ± 9 mm^3; the “Tumor volume, Day 3” value is 253 ± 17 mm^3; the “Tumor volume, Day 7” value is given as 436 ± 23 mm^3; the “Tumor volume, Day 10” value is 553 ± 63 mm^3. Besides, in test [2] (setting [4]), the “Tumor volume, Day 14” value amounted to 759 ± 81 mm^3; the “Tumor volume, Day 17” value worked out at 1346 ± 109 mm^3; the “Tumor volume, Day 21” value turned out to be 1867 ± 130 mm^3; the “TGI (tumor growth inhibition)” value was 21%. For the same molecule, in test [2] (setting [5]), the “Tumor volume, Day 0” value is on record as 125 ± 10 mm^3; the “Tumor volume, Day 3” value came out at 251 ± 22 mm^3; the “Tumor volume, Day 7” value stood at 390 ± 46 mm^3; the “Tumor volume, Day 10” value is 462 ± 46 mm^3. In test [2] (setting [5]), the “Tumor volume, Day 14” value came to 729 ± 77 mm^3; the “Tumor volume, Day 17” value was 1202 ± 118 mm^3; the “Tumor volume, Day 21” value was determined as 1630 ± 126 mm^3; the “TGI (tumor growth inhibition)” value was determined as 31%.
With `C[C@]12C=CC(=O)C=C1CC[C@@H]1[C@@H]2[C@@H](O)C[C@@]2(C)[C@H]1CC[C@]2(O)C(=O)CO` [Prednisolone], the “Equivalent Potency” value in test [1] is on record as 5 mg.
Consider `C[C@]12CCC(=O)C=C1CC[C@@H]1[C@@H]2[C@@H](O)C[C@@]2(C)[C@H]1CC[C@]2(O)C(=O)CO` [Hydrocortisone], for which the “Equivalent Potency” value in test [1] is listed as 20 mg.
